Here are results for 1 compound from publication PMC10037499, “High-Throughput Screen Reveals the Structure–Activity Relationship of the Antimicrobial Lasso Peptide Ubonodin” (ACS Central Science, 2023).

Values after ≈ are worked out from the molar mass of the structure shown. Where a SMILES comes first, the peptide text is derived from it.

One assay deals with E. coli MC1061. The experiment in a line: Spot dilution assay of E. coli producing the ubonodin variant from pUboABC. It is filed as cell-based. The note with it: variant in pUboABC backbone in E. coli MC1061, induction with 100 μM IPTG, ten-fold serial dilutions, biological duplicates. The method, boiled down: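 E. coli MC1061 carrying the plasmids was grown at 37 °C in LB with 100 μg/mL ampicillin to OD600 0.3, then induced with 100 μM IPTG. Samples taken before induction and at later timepoints were PBS-washed, spotted as ten-fold dilutions on ampicillin/0.2% glucose LB plates, and imaged after 16 h at 37 °C.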

Assay [1] relates to B. cenocepacia AU0756. The procedure, abridged: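 Ubonodin variants were tested by broth microdilution following CLSI guidelines against clinical Burkholderia cenocepacia isolates AU0756 and AU24362.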
The test system of assay [2] is B. cenocepacia AU0756. Further details: method as in PMID 35802499. The note with it: spot-on-lawn assay; cited from earlier work.
From the text: (§1) We proceeded to test the antimicrobial activity of the selected variants against two clinical isolates of the Bcc, B. cenocepacia AU0756 and B. cenocepacia AU24362, in broth microdilution assays. […] We revisited these measurements using broth microdilution assays following the Clinical & Laboratory Standards Institute (CLSI) standard.
Another assay deals with B. cenocepacia AU24362. Details: method as in PMID 35802499. Particulars: spot-on-lawn assay; cited from earlier work.

From the text for B. cenocepacia AU24362: as §1

Take `CC[C@H](C)[C@@H]1NC(=O)[C@H](CO)NC(=O)CNC(=O)[C@H](CC(=O)O)NC(=O)CNC(=O)CNC(=O)CC[C@@H](C(=O)N[C@@H](Cc2ccc(O)cc2)C(=O)N[C@@H](Cc2ccccc2)C(=O)N[C@@H](CC(N)=O)C(=O)N[C@@H](CCCNC(=N)N)C(=O)N2CCC[C@H]2C(=O)N[C@@H](CCSC)C(=O)N[C@@H](Cc2c[nH]cn2)C(=O)N[C@H](C(=O)N[C@@H](Cc2c[nH]cn2)C(=O)N[C@@H](CC(=O)O)C(=O)N[C@@H](Cc2c[nH]c3ccccc23)C(=O)N[C@@H](CCC(N)=O)C(=O)N[C@H](C(=O)N[C@@H](CCSC)C(=O)N[C@@H](CC(=O)O)C(=O)N[C@@H](CO)C(=O)NCC(=O)N[C@@H](Cc2ccc(O)cc2)C(=O)N[C@@H](Cc2ccc(O)cc2)C(=O)NCC(=O)O)[C@@H](C)CC)[C@@H](C)CC)NC(=O)[C@H](C)NC1=O` [WT, ubonodin] (HELM PEPTIDE1{G.G.D.G.S.I.A.E.Y.F.N.R.P.M.H.I.H.D.W.Q.I.M.D.S.G.Y.Y.G}$PEPTIDE1,PEPTIDE1,1:R1-8:R3$$$V2.0; C-terminus assumed): in the assay on E. coli MC1061, the “Inhibits Growth” value was “Yes”. In addition, the “B. cenocepacia AU0756 MIC” value in the assay with B. cenocepacia AU0756 [1] lay in the range of 0.25 to 0.5 µM. Also, in the assay with B. cenocepacia AU0756 [2], the “MIC against strain AU0756” value was 10 µM (≈ 32 µg/mL). Further, the “MIC against strain AU24362” value with B. cenocepacia AU24362 is 20 µM (≈ 64 µg/mL).
